From patent US20240075087A1, “COMPOSITIONS AND METHODS COMPRISING HEMP EXTRACT FOR THE TREATMENT OF ANIMALS IN NEED” (Portland Technology Holdings LLC, priority 2021, published 2024)
≈ marks a conversion by molar mass, not a printed value.

Key:
[1] = tested on: CMT12 cell line; test: Annexin V-FITC apoptosis assay, CMT12; assay type: cell-based, canine; details: 15 μg/mL CBD, VC 10.9±2.0%
Experimental: (§1) Apoptosis after 4 and 8 hours treatment is measured using Annexin-V staining (Invitrogen Annexin V-FITC staining kit, Carlsbad, California). Briefly, cells are detached with Accumax (Innovative Cell Technologies, San Diego, California), collected and centrifuged for 10 m at 1000 g at 4° C. The pellet is washed once with PBS before resuspension in Annexin Binding Buffer (ABB; 10 mM HEPES, 140 mM NaCl, 2.5 mM CaCl2, pH 7.4) at a density of approximately 1×10^6 cell/mL. […] After the incubation, ABB is added to the cell suspension and kept on ice until fluorescence is measured with the BD FACScalibur flow cytometer using an argon laser (BD Biosciences, Ashland, Oregon). Ten thousand events are collected per sample. Analysis is performed with the FlowJo software (Version 10.7.1. Becton, Dickinson, Ashland, Oregon) by first gating based on the forward- and side-scatter characteristics for each cell line followed by Annexin V-FITC positive cells. Negative fluorescence controls are unstained cells. Three independent replicates are examined for each treatment.

[2] = tested on: 17-71 cell line; test: Annexin V-FITC apoptosis assay, 17-71; assay type: cell-based, canine; details: 15 μg/mL CBD, VC 10.1±0.4%
Experimental: as §1

[3] = Single-dose oral pharmacokinetics of CBD in healthy dogs; assay type: in vivo; details: dog, serum
Experimental: (§2) The single-dose oral pharmacokinetics of CBD and an assessment of safety and adverse effects during 12-week administration using a hemp-based product in healthy dogs and cats were determined in this study. […] More details about this study can be found in “Deabold, K. A.; Schwark, W. S.; Wolf, L.; Wakshlag, J. J., Single Dose Pharmacokinetics and Preliminary Safety Assessment with Use of CBD-Rich Hemp Nutraceutical in Healthy Dogs and Cats, Animals 2019, 9, 832, DOI 10.3390/ani9100832,” which is incorporated herein by reference in its entirety.

[4] = Single-dose oral pharmacokinetics of CBD in healthy cats; assay type: in vivo; details: serum, single oral dose 2 mg/kg total CBD/CBDA
Experimental: as §2

[5] = tested on: canine primary dermal fibroblasts (CDF); test: Trypan blue exclusion assay, dermal fibroblasts; assay type: cell-based; details: 48 hours, vehicle control 16±3%
Experimental: (§3) The trypan blue exclusion assay is performed on canine primary dermal fibroblasts (CDF) because of the slow rate of proliferation and low metabolic activity of these normal canine cells, precluding productive MTT assays. The effects of CBD treatments are compared with the results obtained on the 17-71, CMT12 and D17 cell lines for comparative purposes. For the CDF cells, applied cell extracellular matrix (ABM) is applied overnight to 24-well tissue culture-treated plates (Applied Biological Materials [ABM], Richmond, BC, Canada). For all cell lines, cells are plated at a density of 5×10^3 cells per well and incubated until 60% confluent before treatment with methanol vehicle control, 3.75, 7.5, and 15 μg/mL of CBD to cells for 48 hours. Cells are then trypsinized, collected and centrifuged at 1900 g for 10 minutes. With the exception of the 17-71 cell line, cells are detached with Accumax (Invitrogen, Carlsbad, California). The cell pellet is resuspended in 0.1% trypan blue (Sigma Aldrich, St Louis, Missouri) in PBS solution, loaded on a Cell Countess disposable cell counting slide with automatic counting of all positively stained cells in the Countess II Cell Counter under identical settings for each cell line (Invitrogen; ThermoFisher Scientific, Carlsbad, California) using the same parameters for each cell line. All treatments are performed in triplicate and the percent of viable cells are averaged.

[6] = tested on: 17-71 B cell lymphoma cell line; test: 48 hours MTT proliferation assay, 17-71; assay type: cell-based, canine; details: pure compound
Experimental: 3-(4,5-Dimethylthaizol-2-yl)-2,5-diphenyltetrazolium bromide (MTT) assays are performed on all previously described cell lines; CMT12, HMPOS, D17, Abrams and 17-71. […] Cells are treated with vehicle (methanol or ethanol/DMSO mix) or various concentrations of the CBD, CBDA or CBD-rich hemp extract ranging from 0.42 to 20 μg/mL in serial dilution for 48 hours. MTT assays are performed after 48 hours of treatment by adding 20 μL of MTT dye ([…] filtered 5 mg/mL in phosphate-buffered saline [PBS]) to each well and incubating at 37° C. in 5% CO2 for 2 hours. The media is then aspirated, washed once with 200 μL of PBS and then solubilized in 200 μL of ethanol. Immediate analysis of the optical density of each well is performed using a spectrophotometric plate reader (Epoch; Biotek, Winooski, Vermont) at a wavelength of 570 nm as previously described (e.g., Vega-Avila E and Pugsley M K, An overview of colorimetric assay methods used to assess survival or proliferation of mammalian cells, Proc West Pharmacol Soc., 2011, 54, pp. 10-14 which is incorporated herein by reference in its entirety). The percent proliferating cells of control for each concentration is averaged and reported as a mean+/—SD from triplicate wells over three experiments.
For CBD, CBDA and hemp extract concentrations needed to obtain a 50% inhibition of cell proliferation (IC50) are then calculated across experiments by Probit analysis using XLFit5 software (IDBS, Guildford, United Kingdom) for reporting the results for each cell line.

[7] = tested on: D17 cells; test: Annexin V-FITC apoptosis assay, D17; assay type: cell-based, canine; details: 15 μg/mL CBD, 4 hours, VC 6.5±0.6%
Experimental: as §1

[8] = tested on: CMT12 cells; test: Trypan blue exclusion assay, CMT12; assay type: cell-based, canine; details: 48 hours, vehicle control 3±1%
Experimental: as §3

**Q.** Which results are given for C=C(C)[C@@H]1CCC(C)=C[C@H]1c1c(O)cc(CCCCC)cc1O [CBD, cannabidiol]?
**A.** Annexin V positive staining cells ([1]; 4 hours): 15.7±2.2%; Annexin V positive staining cells ([1]; 8 hours): 21.5±2.5%; Annexin V positive staining cells ([2]; 4 hours): 31.0±10.8%; Annexin V positive staining cells ([2]; 8 hours): 79.0±6.1%; Cmax ([3]; single oral dose 2 mg/kg total CBD/CBDA (1 mg/kg CBD and 1 mg/kg CBDA), read-out: mean maximum CBD concentration (Cmax)): 301 ng/mL; AUC ([3]; single oral dose 2 mg/kg total CBD/CBDA, read-out: area under the curve (AUC)): 1300 ng·h/mL; Tmax ([3]; single oral dose 2 mg/kg total CBD/CBDA, read-out: time to maximal concentration (Tmax)): 1.4 h; AUC ([4]; read-out: area under the curve (AUC)): 164 ng·h/mL; Cmax ([4]; read-out: mean maximum CBD concentration (Cmax)): 43 ng/mL; Tmax ([4]; read-out: time to maximal concentration (Tmax)): 2 h; percent trypan blue positive cells ([5]; 3.75 μg/mL CBD): 32±5%; percent trypan blue positive cells ([5]; 7.5 μg/mL CBD): 58±7%; percent trypan blue positive cells ([5]; 15 μg/mL CBD): 77±12%; IC50 ([6]; Canis lupus familiaris, B-cell, read-out: IC50 (Probit)): 2.5 µg/mL (≈ 7.95 µM); concentrations that significantly diminished proliferation vs vehicle control ([6]; P<0.05): ≥ 2.5 µg/mL; Annexin V positive staining cells [7]: 9.4±1.8%; percent trypan blue positive cells ([8]; 3.75 μg/mL CBD): 4±2%; percent trypan blue positive cells ([8]; 7.5 μg/mL CBD): 9±3%; percent trypan blue positive cells ([8]; 15 μg/mL CBD): 87%±8%
